The record followed here is ChEMBL document CHEMBL4715902, “Thiophene-Pyrazolourea Derivatives as Potent, Orally Bioavailable, and Isoform-Selective JNK3 Inhibitors” (ACS Med Chem Lett, 2021).

One data set deals with SH-SY5Y. The data set is described as follows: Cytotoxicity against human SH-SY5Y cells assessed as cell viability at 10 uM after 48 hrs by MTT assay relative to control. The class given is cell-based.
Data set [1] is described as follows: Metabolic stability in human liver microsomes assessed as half life. The data set is classed as ADME, Microsome. In general terms: Liver microsomes are vesicles of endoplasmic reticulum, rich in cytochrome P450 enzymes.
Data set [2] can be described thus: Metabolic stability in mouse liver microsomes assessed as half life. The class given is ADME, Microsome.
Data set [3] concerns the target Mitogen-activated protein kinase 14 (Homo sapiens, UniProt Q16539). The data set is described as follows: Inhibition of P38alpha (unknown origin).
In data set [4] the target is Mitogen-activated protein kinase 10 (Rattus norvegicus) (UniProt P49187). Description: Inhibition of JNK3 in rat primary neuron assessed as reduction in phosphorylation of APP at T688 residue at 10 nM incubated for 30 mins by Western blot analysis. The conditions noted are these: dose nM 10, time 30.0 min.
Sequence of Mitogen-activated protein kinase 10 (Rattus norvegicus) (P49187 whole entry): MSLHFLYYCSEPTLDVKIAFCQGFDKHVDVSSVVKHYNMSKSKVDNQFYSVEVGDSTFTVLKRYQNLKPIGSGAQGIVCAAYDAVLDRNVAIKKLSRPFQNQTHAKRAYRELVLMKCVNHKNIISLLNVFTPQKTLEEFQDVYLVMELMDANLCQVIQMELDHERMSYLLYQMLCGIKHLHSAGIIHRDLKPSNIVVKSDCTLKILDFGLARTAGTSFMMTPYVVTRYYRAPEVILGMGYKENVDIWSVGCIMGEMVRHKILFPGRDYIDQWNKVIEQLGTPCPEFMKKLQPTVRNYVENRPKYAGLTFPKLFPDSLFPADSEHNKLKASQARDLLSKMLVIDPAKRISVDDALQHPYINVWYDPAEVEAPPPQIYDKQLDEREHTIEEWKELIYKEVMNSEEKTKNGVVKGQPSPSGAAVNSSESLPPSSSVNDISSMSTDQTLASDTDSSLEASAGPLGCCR
Data set [5] is described as follows: Brain concentration in C57BL/6J mouse at 10 mg/kg, po measured after 1 hr by LC-MS/MS analysis. The class given is ADME, organism-based. The settings on record: read-out: Drug uptake.
Data set [6] can be described thus: Plasma concentration in C57BL/6J mouse at 10 mg/kg, po measured after 1 hr by LC-MS/MS analysis. The data set is classed as ADME, organism-based.

The source made the active and inactive calls. No cut-off for these calls is given here.

Sequence of Mitogen-activated protein kinase 14 (Q16539 whole entry): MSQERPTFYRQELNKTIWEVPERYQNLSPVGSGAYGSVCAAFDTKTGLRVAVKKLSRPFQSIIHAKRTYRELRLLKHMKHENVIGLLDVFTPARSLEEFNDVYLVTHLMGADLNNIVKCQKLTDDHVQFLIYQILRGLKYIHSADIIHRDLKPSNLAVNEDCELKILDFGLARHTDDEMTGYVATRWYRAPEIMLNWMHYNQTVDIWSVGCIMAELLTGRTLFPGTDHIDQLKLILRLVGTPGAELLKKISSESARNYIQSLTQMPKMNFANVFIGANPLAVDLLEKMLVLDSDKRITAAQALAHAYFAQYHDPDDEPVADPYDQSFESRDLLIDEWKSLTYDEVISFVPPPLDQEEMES

In the case of `Cc1sc(C(=O)NC2COC2)cc1-n1cc(NC(=O)Nc2c(F)cccc2Cl)cn1`, the Activity in the data set with SH-SY5Y came to 111%. Further, the results for the t1/2 in data set [1] and in data set [2] were 110 min and 57 min, respectively.

For the compound `CN1CCC[C@H]1CNC(=O)c1cc(-n2cc(NC(=O)Nc3ccccc3Cl)cn2)cs1`, in data set [3], the IC50 was > 20 µM.

Take `O=C(Nc1cnn(-c2cc(C(=O)NC3CNC3)cs2)c1)Nc1ccccc1Cl`: the IC50 in data set [3] was > 20 µM.

Turning to `CN1CC[C@H](NC(=O)c2cc(-n3cc(NC(=O)Nc4ccccc4Cl)cn3)cs2)C1`, the Activity with SH-SY5Y is listed as 94%. In addition, in data set [1], the t1/2 turned out to be 54 min. Also, the IC50 in data set [3] was > 20 µM.

As for `CN1CC[C@@H](NC(=O)c2cc(-n3cc(NC(=O)Nc4ccccc4Cl)cn3)cs2)C1`, the IC50 in data set [3] was > 20 µM.

`O=C(Nc1cnn(-c2csc(C(=O)NC3COC3)c2)c1)Nc1ccc(F)cc1Cl`: in the data set with SH-SY5Y, the Activity was determined as 104%. For the same compound, the t1/2 in data set [1] is > 120 min; in data set [2] it was 68 min. In data set [4], the inhibition result was “Active”.

As to `O=C(Nc1cnn(-c2csc(C(=O)NC3CCOCC3)c2)c1)Nc1ccccc1Cl`, the Activity in the data set with SH-SY5Y came out at 97%. In data set [2], the t1/2 came out at 16 min.

Regarding `O=C(Nc1cnn(-c2csc(C(=O)NC3COC3)c2)c1)Nc1c(F)cccc1Cl`, the Activity in the data set with SH-SY5Y is given as 102%. The results for the t1/2 in data set [1] and in data set [2] were 100 min and 72 min, respectively.

In the case of `[2H]C([2H])([2H])N1CC[C@@H](NC(=O)c2cc(-n3cc(NC(=O)Nc4ccccc4Cl)cn3)cs2)C1`, the IC50 in data set [3] was > 20 µM.

Consider `CN1CCC(NC(=O)c2cc(-n3cc(NC(=O)Nc4ccccc4Cl)cn3)cs2)CC1`, for which the Activity in the data set with SH-SY5Y came to 89%. Besides, the t1/2 in data set [1] was found to be 92 min; in data set [2], 15 min.

Turning to `CC(C)N1CC[C@H](NC(=O)c2cc(-n3cc(NC(=O)Nc4ccccc4Cl)cn3)cs2)C1`, the IC50 in data set [3] is > 20 µM.

On to `O=C(Nc1cnn(-c2csc(C(=O)N[C@@H]3CCOC3)c2)c1)Nc1ccccc1Cl`, for which the Activity in the data set with SH-SY5Y was 112%. Moreover, the t1/2 in data set [1] was 33 min; in data set [2] it was 13 min. The IC50 in data set [3] is > 20 µM.

With `O=C(Nc1cnn(-c2csc(C(=O)NC3CC3)c2)c1)Nc1ccccc1Cl`, the Activity in the data set on SH-SY5Y was determined as 103%. Further, the t1/2 is recorded as 49 min in data set [1] and 35 min in data set [2].

For the compound `O=C(Nc1cnn(-c2csc(C(=O)N[C@@H]3CCNC3)c2)c1)Nc1ccccc1Cl`, the IC50 in data set [3] was > 20 µM.

Turning to `Cc1sc(C(=O)N[C@@H]2CCOC2)cc1-n1cc(NC(=O)Nc2c(F)cccc2Cl)cn1`, the Activity with SH-SY5Y turned out to be 114%. For the same compound, the t1/2 in data set [1] is on record as 40 min; in data set [2], 38 min. Moreover, the inhibition result in data set [4] was “Active”.

Regarding `O=C(Nc1cnn(-c2csc(C(=O)NCC3CCOCC3)c2)c1)Nc1ccccc1Cl`, in the data set on SH-SY5Y, the Activity was 95%. Besides, the t1/2 in data set [1] was found to be 8 min; in data set [2] it was 15 min.

With `O=C(Nc1cnn(-c2csc(C(=O)NC3COC3)c2)c1)Nc1ccccc1Cl`, the values for the concentration at 1 h in data set [5] and in data set [6] were 1080 nM and 960 nM, respectively. In the data set with SH-SY5Y, the Activity is 104%. The t1/2 in data set [1] is on record as 66 min; in data set [2], 24 min. The IC50 in data set [3] is > 20 µM. In addition, in data set [4], the inhibition entry is “Active”.

On to `CN1CC[C@H](CNC(=O)c2cc(-n3cc(NC(=O)Nc4ccccc4Cl)cn3)cs2)C1`, for which the IC50 in data set [3] is > 20 µM.

In the case of `O=C(Nc1cnn(-c2csc(C(=O)NC[C@H]3CCOC3)c2)c1)Nc1ccccc1Cl`, the 50% inhibitory concentration (IC50) in data set [3] was > 20 µM.

What is called IC50 is the concentration at which inhibition is half-maximal. Lower therefore signals greater potency.
